Results reported in ChEMBL document CHEMBL3351363 (J Med Chem, 2014).
pEC50, pIC50, pKi: −log10 of the molar value.

Tests used:
[1] = target: T1, Muscarinic acetylcholine receptor M4 (Homo sapiens) (UniProt P08173); test: Antagonist activity at human M4 receptor expressed in HEK293T cells assessed as inhibition of carbachol-induced response by beta-arrestin engagement assay relative to untreated control; assay type: cell-based; settings: HEK-293T
T1 sequence (whole entry): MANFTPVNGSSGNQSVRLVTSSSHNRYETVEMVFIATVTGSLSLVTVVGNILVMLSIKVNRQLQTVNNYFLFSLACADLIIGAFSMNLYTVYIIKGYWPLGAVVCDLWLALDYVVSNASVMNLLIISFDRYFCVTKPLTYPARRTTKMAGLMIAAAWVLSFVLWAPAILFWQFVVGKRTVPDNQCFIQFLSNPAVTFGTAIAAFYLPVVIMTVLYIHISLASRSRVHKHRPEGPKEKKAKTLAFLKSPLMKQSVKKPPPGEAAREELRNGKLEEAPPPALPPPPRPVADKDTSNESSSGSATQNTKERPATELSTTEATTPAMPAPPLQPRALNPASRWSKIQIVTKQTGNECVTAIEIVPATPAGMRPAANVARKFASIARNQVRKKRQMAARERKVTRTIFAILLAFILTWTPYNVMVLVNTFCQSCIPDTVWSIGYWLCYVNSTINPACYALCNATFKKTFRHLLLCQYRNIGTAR

[2] = target: T1, Muscarinic acetylcholine receptor M4 (Homo sapiens); test: Antagonist activity at human M4 receptor expressed in HEK293T cells assessed as inhibition of carbachol-induced response by BRET based Gq protein engagement assay relative to untreated control; assay type: cell-based; settings: HEK-293T
[3] = target: T1, Muscarinic acetylcholine receptor M4 (Homo sapiens); test: Antagonist activity at human M4 receptor expressed in HEK293T cells assessed as inhibition of carbachol-induced response by BRET based Gi protein activation assay relative to untreated control; settings: HEK-293T
[4] = target: T2, Muscarinic acetylcholine receptor M2 (Homo sapiens, UniProt P08172); test: Displacement of [3H]NMS from human M2 receptor expressed in CHO cells by microplate scintillation counting based radioligand binding assay; assay type: cell-based
T2 sequence (P08172 whole entry): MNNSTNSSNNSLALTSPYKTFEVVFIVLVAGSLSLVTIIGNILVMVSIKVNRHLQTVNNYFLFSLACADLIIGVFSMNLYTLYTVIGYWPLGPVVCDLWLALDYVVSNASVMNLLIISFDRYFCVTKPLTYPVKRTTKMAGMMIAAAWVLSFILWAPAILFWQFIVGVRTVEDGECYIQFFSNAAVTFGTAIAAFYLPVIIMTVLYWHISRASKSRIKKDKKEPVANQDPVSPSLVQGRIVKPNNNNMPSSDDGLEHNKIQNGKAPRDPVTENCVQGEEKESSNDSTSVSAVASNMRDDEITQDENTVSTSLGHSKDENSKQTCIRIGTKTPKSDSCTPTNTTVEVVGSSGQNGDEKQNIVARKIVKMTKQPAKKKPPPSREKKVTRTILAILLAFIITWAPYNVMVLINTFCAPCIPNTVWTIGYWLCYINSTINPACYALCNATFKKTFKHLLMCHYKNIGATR

[5] = target: T3, Muscarinic acetylcholine receptor M4 (Homo sapiens, UniProt P08173); test: Displacement of [3H]NMS from human M4 receptor expressed in CHO cells by microplate scintillation counting based radioligand binding assay; assay type: cell-based
T3 sequence (P08173 whole entry): T1 sequence (whole entry)

[6] = target: T4, Muscarinic acetylcholine receptor M1 (Homo sapiens, UniProt P11229); test: Displacement of [3H]NMS from human M1 receptor expressed in CHO cells by microplate scintillation counting based radioligand binding assay; assay type: cell-based
T4 sequence (P11229 whole entry): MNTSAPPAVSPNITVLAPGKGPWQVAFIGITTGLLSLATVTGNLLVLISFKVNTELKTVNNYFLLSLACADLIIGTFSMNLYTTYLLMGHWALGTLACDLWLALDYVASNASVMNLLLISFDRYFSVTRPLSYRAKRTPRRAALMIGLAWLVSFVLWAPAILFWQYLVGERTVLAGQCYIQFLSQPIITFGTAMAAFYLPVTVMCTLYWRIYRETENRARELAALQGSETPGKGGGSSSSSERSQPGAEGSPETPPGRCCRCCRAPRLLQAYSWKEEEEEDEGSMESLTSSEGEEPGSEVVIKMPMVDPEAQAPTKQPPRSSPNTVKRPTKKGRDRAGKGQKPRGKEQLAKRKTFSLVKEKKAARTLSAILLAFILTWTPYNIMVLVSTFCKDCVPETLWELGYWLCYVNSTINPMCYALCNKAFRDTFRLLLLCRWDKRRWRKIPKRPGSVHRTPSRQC

[7] = target: Muscarinic acetylcholine receptor M3 (Homo sapiens, UniProt P20309); test: Displacement of [3H]NMS from human M3 receptor expressed in CHO cells by microplate scintillation counting based radioligand binding assay; assay type: cell-based
[8] = target: T5, Muscarinic acetylcholine receptor M5 (Homo sapiens, UniProt P08912); test: Displacement of [3H]NMS from human M5 receptor expressed in CHO cells by microplate scintillation counting based radioligand binding assay; assay type: cell-based
T5 sequence (P08912 whole entry): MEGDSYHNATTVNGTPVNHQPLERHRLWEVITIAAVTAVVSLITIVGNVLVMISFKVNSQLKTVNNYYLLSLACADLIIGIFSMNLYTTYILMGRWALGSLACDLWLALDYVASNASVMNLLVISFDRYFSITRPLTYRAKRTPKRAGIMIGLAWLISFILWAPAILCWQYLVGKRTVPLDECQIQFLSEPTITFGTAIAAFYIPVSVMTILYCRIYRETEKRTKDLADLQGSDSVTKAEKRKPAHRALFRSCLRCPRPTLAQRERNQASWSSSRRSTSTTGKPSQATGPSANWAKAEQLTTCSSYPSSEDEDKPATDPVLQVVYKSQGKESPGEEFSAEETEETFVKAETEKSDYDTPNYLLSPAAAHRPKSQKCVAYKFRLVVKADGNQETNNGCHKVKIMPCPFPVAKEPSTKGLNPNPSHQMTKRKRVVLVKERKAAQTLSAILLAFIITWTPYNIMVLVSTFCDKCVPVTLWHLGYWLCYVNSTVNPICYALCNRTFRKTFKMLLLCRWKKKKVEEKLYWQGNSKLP

[9] = target: T1, Muscarinic acetylcholine receptor M4 (Homo sapiens); test: Agonist activity at human M4 receptor expressed in HEK293T cells by BRET based Gi protein activation assay relative to carbachol; settings: HEK-293T
[10] = target: T1, Muscarinic acetylcholine receptor M4 (Homo sapiens); test: Agonist activity at human M4 receptor expressed in HEK293T cells by BRET based Gq protein engagement assay relative to carbachol; assay type: cell-based; settings: HEK-293T
[11] = target: T6, Muscarinic acetylcholine receptor M1 (Homo sapiens) (UniProt P11229); test: Agonist activity at human M1 receptor expressed in HEK293T cells by BRET based Gq protein engagement assay relative carbachol; assay type: cell-based; settings: HEK-293T
T6 sequence (whole entry): T4 sequence (P11229 whole entry)

[12] = target: T3, Muscarinic acetylcholine receptor M4; test: Antagonist activity at human M4 receptor expressed in HEK293T cells assessed as inhibition of carbachol-induced response by beta-arrestin engagement assay; assay type: cell-based, HEK-293T
[13] = target: T4, Muscarinic acetylcholine receptor M1; assay type: cell-based, HEK-293T
[14] = target: T4, Muscarinic acetylcholine receptor M1; test: Agonist activity at human M1 receptor expressed in HEK293T cells by BRET based Gq protein activation assay; assay type: cell-based, HEK-293T
[15] = target: T6, Muscarinic acetylcholine receptor M1 (Homo sapiens); test: Agonist activity at human M1 receptor expressed in HEK293T cells by BRET based Gq protein activation assay relative to carbachol; assay type: cell-based; settings: HEK-293T
[16] = target: T4, Muscarinic acetylcholine receptor M1; assay type: cell-based, HEK-293T; remark: listed apart in the source
[17] = target: T6, Muscarinic acetylcholine receptor M1 (Homo sapiens); test: Agonist activity at human M1 receptor expressed in HEK293T cells by BRET based beta-arrestin engagement assay relative to carbachol; assay type: cell-based; settings: HEK-293T
[18] = target: T3, Muscarinic acetylcholine receptor M4; test: Antagonist activity at human M4 receptor expressed in HEK293T cells assessed as inhibition of carbachol-induced response by BRET based Gq protein engagement assay; assay type: cell-based, HEK-293T
[19] = target: T4, Muscarinic acetylcholine receptor M1; test: Agonist activity at human M1 receptor expressed in HEK293T cells by BRET based beta-arrestin engagement assay
[20] = target: T3, Muscarinic acetylcholine receptor M4; test: Agonist activity at human M4 receptor expressed in HEK293T cells by BRET based Gq protein activation assay
[21] = target: T3, Muscarinic acetylcholine receptor M4
[22] = target: T4, Muscarinic acetylcholine receptor M1
[23] = target: T4, Muscarinic acetylcholine receptor M1; test: Agonist activity at human M1 receptor expressed in HEK293T cells by BRET based Gq protein engagement assay

Chain of Muscarinic acetylcholine receptor M3 (P20309 whole entry): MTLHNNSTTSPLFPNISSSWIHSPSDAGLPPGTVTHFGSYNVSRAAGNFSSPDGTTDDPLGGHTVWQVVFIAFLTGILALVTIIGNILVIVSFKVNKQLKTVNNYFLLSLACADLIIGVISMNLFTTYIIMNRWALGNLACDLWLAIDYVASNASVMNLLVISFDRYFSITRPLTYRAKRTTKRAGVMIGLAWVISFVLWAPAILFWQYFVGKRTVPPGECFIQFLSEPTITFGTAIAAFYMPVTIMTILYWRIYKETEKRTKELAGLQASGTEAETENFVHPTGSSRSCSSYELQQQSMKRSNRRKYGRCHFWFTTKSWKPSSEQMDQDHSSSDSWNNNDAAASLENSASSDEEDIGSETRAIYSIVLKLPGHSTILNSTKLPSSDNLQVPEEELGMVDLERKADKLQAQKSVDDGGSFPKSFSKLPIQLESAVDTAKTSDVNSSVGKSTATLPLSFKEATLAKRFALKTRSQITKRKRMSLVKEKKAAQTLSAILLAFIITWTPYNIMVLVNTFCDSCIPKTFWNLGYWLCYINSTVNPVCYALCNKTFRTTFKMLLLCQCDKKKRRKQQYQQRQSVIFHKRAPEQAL

Structure (SMILES)	Imax [1] [%]	Imax [2] [%]	Imax [3] [%]	pKi [4]	pKi [5]	pKi [6]	pKi [7]	pKi [8]	also measured
CN1[C@@H]2C[C@@H](OC(=O)[C@H](CO)c3ccccc3)C[C@H]1[C@@H]1O[C@@H]12	77	< 100	< 100						
CN1CCC=C(c2nsnc2OCCCCCCCCCCCC2CCN(CCCN3C(=O)CCc4ccccc43)CC2)C1				7.05	8.18	7.96	8.00	8.06	
O=C1CCc2ccccc2N1CCCN1CCC(CCCCCCCCCC2CCN(CCCN3C(=O)CCc4ccccc43)CC2)CC1				7.10	7.49	7.53	7.24	7.31	
CN1CCN(CC(=O)N2c3ccccc3C(=O)Nc3cccnc32)CC1	67	< 100	< 100						
CN1CCC=C(c2nsnc2OCCCCCCCCCC2CCN(CCCN3C(=O)CCc4ccccc43)CC2)C1	< 100	63		8.77	8.97	8.99	8.96	8.53	Emax [9]: > 100%; Emax [10]: < 0%; Emax [11]: < 0%; pIC50 [12]: 4.02; pIC50 [13]: 4.85; pEC50 [14]: 6.06; Emax [15]: 31%; pIC50 [16]: 3.83; Emax [17]: 81%; pIC50 [18]: 5.61; pEC50 [19]: 4.21; pEC50 [20]: 4.18
O=C1CCc2ccccc2N1CCCN1CCC(CCCCCCCCCCCCCO)CC1				6.32	7.02	6.73	6.47	6.47	
CN1CCC=C(c2nsnc2OCCCCCCCCCCCCCC2CCN(CCCN3C(=O)CCc4ccccc43)CC2)C1				7.07	7.84	7.35	7.35	7.51	
O=C1CCc2ccccc2N1CCCN1CCC(CCCO)CC1				5.49	6.23	5.60	4.93	4.84	
O=C1CCc2ccccc2N1CCCN1CCC(CCCCCCCCCO)CC1	90	92	< 100	6.67	6.81	6.55	6.70	6.07	Emax [9]: < 0%; Emax [10]: < 0%; Emax [11]: < 0%; pIC50 [12]: 6.09; pIC50 [13]: 5.00; pEC50 [14]: 6.53; pIC50 [21]: 5.44; Emax [15]: 22%; pIC50 [16]: 4.71; pIC50 [22]: 6.31; Emax [17]: 50%; pIC50 [18]: 6.23; pEC50 [19]: 3.61
CN1CCC=C(c2nsnc2OCCCC2CCN(CCCN3C(=O)CCc4ccccc43)CC2)C1				7.18	7.58	7.11	7.03	6.99	
O=C1CCc2ccccc2N1CCCN1CCC(CCCCCCCCCCCO)CC1				6.38	6.95	6.91	6.24	6.46	
O=C1CCc2ccccc2N1CCCN1CCC(CCCCCO)CC1	< 100	72	38	6.22	6.35	6.33	5.72	5.34	Emax [9]: 20%; Emax [11]: 58%; pIC50 [12]: 5.79; pEC50 [23]: 6.95; pIC50 [13]: 4.58; pEC50 [14]: 6.69; pIC50 [21]: 5.48; Emax [15]: 53%; pIC50 [16]: 5.00; pIC50 [22]: 7.54; pIC50 [18]: 4.91; pEC50 [20]: 5.70
CN1CCC=C(c2nsnc2OCCCCCCCCCOc2nsnc2C2=CCCN(C)C2)C1				8.50	9.11	8.78	8.54	8.40	
